Experimental findings from ChEMBL document CHEMBL4725370, “Discovery of Proteolysis-Targeting Chimera Molecules that Selectively Degrade the IRAK3 Pseudokinase” (J Med Chem, 2020) are described below.

Active and inactive are the calls of the source. The rule behind the calls is not given here.

Test [1] deals with Interleukin-1 receptor-associated kinase 1 (Homo sapiens, UniProt P51617). As to the kind of experiment: Inhibition of recombinant human N-terminal GST-tagged IRAK1 (194 to 712 residues) expressed in baculovirus expression system using 5-FAM-KKKVSRSGLYRSPSMPENLNRPR-COOH as substrate measured after 240 mins by mobility shift assay.
Sequence of Interleukin-1 receptor-associated kinase 1 (P51617 whole entry, the tested form may be a part): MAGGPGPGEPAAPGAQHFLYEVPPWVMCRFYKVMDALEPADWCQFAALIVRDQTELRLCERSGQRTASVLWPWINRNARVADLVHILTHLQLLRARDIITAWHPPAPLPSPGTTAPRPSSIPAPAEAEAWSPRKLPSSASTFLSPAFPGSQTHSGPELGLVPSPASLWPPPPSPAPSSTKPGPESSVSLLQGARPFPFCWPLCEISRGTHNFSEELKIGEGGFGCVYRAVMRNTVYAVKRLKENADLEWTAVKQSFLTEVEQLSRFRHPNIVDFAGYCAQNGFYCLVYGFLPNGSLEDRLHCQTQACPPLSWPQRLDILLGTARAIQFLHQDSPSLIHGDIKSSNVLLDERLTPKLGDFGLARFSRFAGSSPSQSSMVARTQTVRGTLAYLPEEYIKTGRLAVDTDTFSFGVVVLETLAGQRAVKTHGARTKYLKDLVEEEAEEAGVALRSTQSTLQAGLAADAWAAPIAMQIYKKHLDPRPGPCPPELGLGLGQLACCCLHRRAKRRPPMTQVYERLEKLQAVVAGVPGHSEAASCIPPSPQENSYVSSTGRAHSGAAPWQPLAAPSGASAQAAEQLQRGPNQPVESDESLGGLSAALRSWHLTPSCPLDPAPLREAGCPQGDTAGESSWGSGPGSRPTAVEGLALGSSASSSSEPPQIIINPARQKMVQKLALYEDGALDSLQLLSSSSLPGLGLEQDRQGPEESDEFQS
The target in test [2] is T1, Interleukin-1 receptor-associated kinase 4 (Homo sapiens, UniProt Q9NWZ3).
T1 sequence (Q9NWZ3 whole entry): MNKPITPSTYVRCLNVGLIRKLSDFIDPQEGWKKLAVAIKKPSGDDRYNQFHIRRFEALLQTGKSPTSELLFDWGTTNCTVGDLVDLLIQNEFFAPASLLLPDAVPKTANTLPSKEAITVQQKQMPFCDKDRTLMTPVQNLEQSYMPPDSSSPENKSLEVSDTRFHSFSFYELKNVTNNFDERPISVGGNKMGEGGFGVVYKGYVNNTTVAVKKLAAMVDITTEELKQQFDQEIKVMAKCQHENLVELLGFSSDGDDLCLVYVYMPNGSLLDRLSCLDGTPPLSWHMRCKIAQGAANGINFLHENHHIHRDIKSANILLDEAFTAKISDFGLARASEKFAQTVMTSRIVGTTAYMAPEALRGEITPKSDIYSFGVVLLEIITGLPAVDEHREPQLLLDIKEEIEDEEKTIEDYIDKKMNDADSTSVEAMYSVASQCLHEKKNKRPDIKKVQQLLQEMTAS
Kind of test: Inhibition of recombinant human full-length His-tagged IRAK4 expressed in baculovirus expression system using 5-FAM-IPTSPITTTYFFFKKK-COOH as substrate measured after 240 mins by mobility shift assay.

In test [3] the target is Cyclin-C/Cyclin-dependent kinase 19 (Homo sapiens, UniProt P24863+Q9BWU1). As to the kind of experiment: Inhibition of CDK11/cyclin C (unknown origin). It is filed as protein-complex assay.
Sequence of Cyclin-C/Cyclin-dependent kinase 19 (Q9BWU1 whole entry): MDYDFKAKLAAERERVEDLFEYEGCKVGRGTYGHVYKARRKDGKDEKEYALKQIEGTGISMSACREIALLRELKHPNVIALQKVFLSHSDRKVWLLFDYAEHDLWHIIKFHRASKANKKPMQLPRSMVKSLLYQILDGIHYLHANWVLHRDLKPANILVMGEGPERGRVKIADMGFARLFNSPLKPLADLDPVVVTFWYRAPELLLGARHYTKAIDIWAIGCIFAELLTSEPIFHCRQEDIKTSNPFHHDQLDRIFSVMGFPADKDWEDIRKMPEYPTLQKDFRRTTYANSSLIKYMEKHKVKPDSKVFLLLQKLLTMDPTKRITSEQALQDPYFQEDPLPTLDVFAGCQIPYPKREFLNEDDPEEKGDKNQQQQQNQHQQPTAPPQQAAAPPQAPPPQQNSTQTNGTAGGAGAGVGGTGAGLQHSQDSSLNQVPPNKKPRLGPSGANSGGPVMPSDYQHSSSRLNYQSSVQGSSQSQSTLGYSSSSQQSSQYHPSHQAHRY
Sequence of Cyclin-C/Cyclin-dependent kinase 19 (P24863 whole entry): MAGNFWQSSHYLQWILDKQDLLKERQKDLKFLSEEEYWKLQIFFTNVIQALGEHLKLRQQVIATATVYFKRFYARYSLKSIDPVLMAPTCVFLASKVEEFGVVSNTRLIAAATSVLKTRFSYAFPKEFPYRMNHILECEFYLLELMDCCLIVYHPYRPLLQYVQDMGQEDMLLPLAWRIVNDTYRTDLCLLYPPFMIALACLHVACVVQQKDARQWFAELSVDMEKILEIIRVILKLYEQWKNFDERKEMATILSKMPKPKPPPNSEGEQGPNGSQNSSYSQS
The target of test [4] is Serine/threonine-protein kinase haspin (Homo sapiens) (UniProt Q8TF76). Kind of test: Inhibition of GSG2 (unknown origin) at 0.1 uM relative to control.
For test [5], the target named is Cyclin-C/Cyclin-dependent kinase 19 (Homo sapiens) (UniProt Q9BWU1+P24863). Kind of test: Inhibition of CDK11/cyclin C (unknown origin) at 0.1 uM relative to control. It is filed as protein-complex assay.
The target in test [6] is CDK8/Cyclin C (Homo sapiens) (UniProt P49336+P24863). Kind of test: Inhibition of CDK8/cyclin C (unknown origin) at 0.1 uM relative to control. It is filed as protein-complex assay.
The target in the next test is Protein cereblon (Homo sapiens, UniProt Q96SW2). Kind of test: Inhibition of CRBN (unknown origin).
Sequence of Protein cereblon (Q96SW2 whole entry): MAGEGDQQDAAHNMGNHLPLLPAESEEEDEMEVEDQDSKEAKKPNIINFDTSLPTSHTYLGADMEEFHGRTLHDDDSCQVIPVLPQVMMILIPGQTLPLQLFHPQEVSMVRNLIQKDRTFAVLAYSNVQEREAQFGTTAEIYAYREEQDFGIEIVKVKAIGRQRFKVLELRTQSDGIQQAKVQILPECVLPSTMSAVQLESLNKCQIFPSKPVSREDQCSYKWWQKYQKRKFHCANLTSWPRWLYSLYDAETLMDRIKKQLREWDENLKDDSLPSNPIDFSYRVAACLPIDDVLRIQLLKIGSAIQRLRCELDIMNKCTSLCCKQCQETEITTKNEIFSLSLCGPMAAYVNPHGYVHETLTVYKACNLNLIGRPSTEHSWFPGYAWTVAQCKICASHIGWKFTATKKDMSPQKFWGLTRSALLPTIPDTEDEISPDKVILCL
In test [7] the target is BDNF/NT-3 growth factors receptor (Homo sapiens) (UniProt Q16620). As to the kind of experiment: Inhibition of NTRK2 (unknown origin) at 0.1 uM relative to control.
Sequence of BDNF/NT-3 growth factors receptor (Homo sapiens) (Q16620 32-822 limits assumed): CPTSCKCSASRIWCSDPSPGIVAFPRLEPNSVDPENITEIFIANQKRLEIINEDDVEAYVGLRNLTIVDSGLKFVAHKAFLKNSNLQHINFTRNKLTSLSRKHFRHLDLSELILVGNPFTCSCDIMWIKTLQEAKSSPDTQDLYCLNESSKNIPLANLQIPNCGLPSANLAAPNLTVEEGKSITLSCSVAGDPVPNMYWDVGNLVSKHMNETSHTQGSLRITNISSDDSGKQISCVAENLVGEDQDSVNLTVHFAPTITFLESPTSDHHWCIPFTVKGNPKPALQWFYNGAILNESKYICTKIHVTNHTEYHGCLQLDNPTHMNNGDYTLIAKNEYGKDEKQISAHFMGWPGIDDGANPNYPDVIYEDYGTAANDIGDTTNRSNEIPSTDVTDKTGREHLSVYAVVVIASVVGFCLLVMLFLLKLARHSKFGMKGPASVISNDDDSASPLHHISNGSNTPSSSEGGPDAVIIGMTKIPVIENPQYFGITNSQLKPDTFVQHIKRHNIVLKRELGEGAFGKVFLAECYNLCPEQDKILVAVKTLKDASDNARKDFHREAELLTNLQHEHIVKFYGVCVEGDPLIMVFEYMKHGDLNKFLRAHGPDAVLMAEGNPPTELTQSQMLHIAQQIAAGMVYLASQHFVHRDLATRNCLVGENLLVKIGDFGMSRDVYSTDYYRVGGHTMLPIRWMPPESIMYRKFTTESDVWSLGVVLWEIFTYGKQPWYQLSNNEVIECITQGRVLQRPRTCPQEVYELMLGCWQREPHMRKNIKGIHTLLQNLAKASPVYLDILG
In another test the target is CDK8/Cyclin C (Homo sapiens, UniProt P49336). Kind of test: Inhibition of CDK8/cyclin C (unknown origin). The format is protein-complex assay.
Sequence of CDK8/Cyclin C (P49336 whole entry): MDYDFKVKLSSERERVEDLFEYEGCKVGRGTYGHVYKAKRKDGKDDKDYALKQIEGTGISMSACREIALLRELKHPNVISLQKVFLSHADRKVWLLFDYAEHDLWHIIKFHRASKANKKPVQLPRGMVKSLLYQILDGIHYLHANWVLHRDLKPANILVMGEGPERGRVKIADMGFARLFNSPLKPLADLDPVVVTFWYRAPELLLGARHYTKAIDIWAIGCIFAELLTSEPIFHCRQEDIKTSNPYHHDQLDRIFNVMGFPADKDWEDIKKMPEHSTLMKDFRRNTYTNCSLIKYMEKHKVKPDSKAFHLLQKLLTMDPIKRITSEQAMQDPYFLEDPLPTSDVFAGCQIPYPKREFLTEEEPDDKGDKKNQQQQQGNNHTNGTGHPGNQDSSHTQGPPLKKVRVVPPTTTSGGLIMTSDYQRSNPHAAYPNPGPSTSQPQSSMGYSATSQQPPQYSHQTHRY
Sequence of CDK8/Cyclin C (P24863 whole entry, further chain): as the sequence (P24863 whole entry) above
For test [8], the target named is T1, Interleukin-1 receptor-associated kinase 4. Kind of test: Displacement of polymer supported probe 25 binding to IRAK4 in human THP-1 cell lysates preincubated for 45 mins under shaking condition followed by probe addition and measured after 30 mins by mass spectrometry based chemoproteomic analysis. It is filed as subcellular. Conditions: read-out: Kd(app).
The subject of test [9] is THP-1. As to the kind of experiment: Selectivity ratio of Kd(app) for displacement of polymer supported probe 25 binding to IRAK4 in human THP-1 cell lysates to Kd(app) for displacement of polymer supported probe 25 binding to IRAK3 in human THP-1 cell lysates.
Test [10] concerns THP-1. Kind of test: Selectivity ratio of Kd(app) for displacement of polymer supported probe 25 binding to GSG2 in human THP-1 cell lysates to Kd(app) for displacement of polymer supported probe 25 binding to IRAK3 in human THP-1 cell lysates.
Test [11] deals with Protein cereblon/Delta(24)-sterol reductase (Homo sapiens) (UniProt Q15392+Q96SW2). As to the kind of experiment: Protac activity at CRBN/DHCR24 in LPS-induced human THP1 cells assessed as induction of DHCR24 degradation at 0.1 uM measured after 6 hrs by HPLC-MS based global proteomic analysis relative to control. It is filed as cell-based. Conditions: THP-1.
Sequence of Protein cereblon/Delta(24)-sterol reductase (Homo sapiens) (Q15392 whole entry, looked up): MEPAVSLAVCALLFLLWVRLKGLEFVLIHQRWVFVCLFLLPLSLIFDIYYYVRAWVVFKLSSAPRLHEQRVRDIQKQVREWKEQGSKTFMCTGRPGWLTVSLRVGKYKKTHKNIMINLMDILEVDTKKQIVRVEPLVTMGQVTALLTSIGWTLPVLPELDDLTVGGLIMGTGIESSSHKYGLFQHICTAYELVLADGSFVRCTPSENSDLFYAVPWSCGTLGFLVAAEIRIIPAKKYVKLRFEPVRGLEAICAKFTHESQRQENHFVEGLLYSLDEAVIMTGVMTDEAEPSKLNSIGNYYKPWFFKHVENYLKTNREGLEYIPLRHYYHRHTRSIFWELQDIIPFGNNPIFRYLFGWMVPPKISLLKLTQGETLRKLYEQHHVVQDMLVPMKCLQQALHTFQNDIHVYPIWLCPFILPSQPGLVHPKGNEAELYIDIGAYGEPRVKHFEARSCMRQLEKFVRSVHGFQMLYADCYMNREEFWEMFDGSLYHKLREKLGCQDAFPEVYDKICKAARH
Sequence of Protein cereblon/Delta(24)-sterol reductase (Homo sapiens) (Q96SW2 whole entry, looked up): as the sequence (Q96SW2 whole entry) above
Test [12] concerns the target Protein cereblon/Interleukin-1 receptor-associated kinase 1 (Homo sapiens) (UniProt P51617+Q96SW2). Kind of test: Protac activity at CRBN/IRAK1 in LPS-induced human THP1 cells assessed as induction of IRAK1 degradation at 0.1 uM measured after 6 hrs by HPLC-MS based global proteomic analysis. It is filed as cell-based. Conditions: THP-1.
In test [13] the target is Protein cereblon/Interleukin-1 receptor-associated kinase 4 (Homo sapiens) (UniProt Q9NWZ3+Q96SW2). As to the kind of experiment: Protac activity at CRBN/IRAK4 in LPS-induced human THP1 cells assessed as induction of IRAK4 degradation at 0.1 uM measured after 6 hrs by HPLC-MS based global proteomic analysis. It is filed as cell-based. As to conditions: THP-1.
Sequence of Protein cereblon/Interleukin-1 receptor-associated kinase 4 (Homo sapiens) (Q96SW2 whole entry, looked up, one chain of several): as the sequence (Q96SW2 whole entry) above
Test [14] deals with T2, Protein cereblon/Interleukin-1 receptor-associated kinase 3 (Homo sapiens, UniProt Q9Y616+Q96SW2). Kind of test: Protac activity at CRBN/IRAK3 in human THP1 cells assessed as induction of IRAK3 degradation at 0.1 uM measured after 24 hrs by Western blot analysis. The format is cell-based. Conditions: THP-1.
T2 sequence (Q96SW2 whole entry, looked up): as the sequence (Q96SW2 whole entry) above
T2 sequence (Q9Y616 whole entry, looked up): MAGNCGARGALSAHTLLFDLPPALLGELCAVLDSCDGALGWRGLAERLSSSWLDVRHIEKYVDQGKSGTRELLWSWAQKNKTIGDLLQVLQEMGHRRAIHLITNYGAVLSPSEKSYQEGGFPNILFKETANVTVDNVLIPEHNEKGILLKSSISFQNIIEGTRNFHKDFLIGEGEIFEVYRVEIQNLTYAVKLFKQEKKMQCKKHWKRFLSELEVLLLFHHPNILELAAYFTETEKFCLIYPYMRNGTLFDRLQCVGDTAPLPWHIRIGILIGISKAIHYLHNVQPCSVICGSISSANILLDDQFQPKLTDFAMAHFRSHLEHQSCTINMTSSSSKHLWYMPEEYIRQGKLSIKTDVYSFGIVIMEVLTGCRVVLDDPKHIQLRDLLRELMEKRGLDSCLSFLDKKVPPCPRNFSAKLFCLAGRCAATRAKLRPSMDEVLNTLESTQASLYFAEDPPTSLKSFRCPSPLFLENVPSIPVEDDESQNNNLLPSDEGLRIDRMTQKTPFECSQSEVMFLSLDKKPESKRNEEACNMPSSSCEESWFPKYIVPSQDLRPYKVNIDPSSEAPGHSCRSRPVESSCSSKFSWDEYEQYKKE
The target in test [15] is T2, Protein cereblon/Interleukin-1 receptor-associated kinase 3. Kind of test: Protac activity at CRBN/IRAK3 in human THP1 cells assessed as induction of IRAK3 degradation at 0.1 uM measured after 2 to 72 hrs by Western blot analysis. It is filed as cell-based. Conditions: THP-1, time hrs 2-72. Background: Immunoblotting shows a protein as a band on a membrane.
For test [16] the target is unchanged. Kind of test: Protac activity at CRBN/IRAK3 in human THP1 cells assessed as induction of IRAK3 degradation at 0.1 uM measured after 6 hrs in presence of proteasome inhibitor MG132 by Western blot analysis. The format is cell-based. As to conditions: THP-1.
Test [17] shares this target. As to the kind of experiment: Protac activity at CRBN/IRAK3 in human THP1 cells assessed as induction of IRAK3 degradation at 0.1 uM measured after 6 hrs in presence of IRAK3 ligand cis-1-(4-(4-((5-Isopropylpyrrolo[2,1-f][1,2,4]triazin-4-yl)amino)-cyclohexyl)piperazin-1-yl)ethanone by Western blot analysis. The format is cell-based. As to conditions: THP-1.
The target is the same in test [18]. Kind of test: Protac activity at CRBN/IRAK3 in human THP1 cells assessed as induction of IRAK3 degradation at 0.1 uM measured after 6 hrs in presence of 10 uM thalidomide by Western blot analysis. It is filed as cell-based. Conditions: THP-1.
Test [19] has the same target. As to the kind of experiment: Protac activity at CRBN/IRAK3 in human PBMC derived primary macrophages assessed as induction of IRAK3 degradation at 0.3 uM measured after 8 to 32 hrs by Western blot analysis. It is filed as tissue-based. As to conditions: Primary macrophage, time hrs 8-32.
For test [20] the target is unchanged. Kind of test: Protac activity at CRBN/IRAK3 in human PBMC derived primary macrophages assessed as induction of IRAK3 degradation at 0.3 uM preincubated for 8 hrs followed by LPS-stimulation and measured after 8 to 32 hrs by Western blot analysis. The format is tissue-based. Conditions: Primary macrophage.

Sequence of Protein cereblon/Interleukin-1 receptor-associated kinase 1 (Homo sapiens) (P51617 whole entry, looked up): as the sequence (P51617 whole entry, the tested form may be a part) above
Sequence of Protein cereblon/Interleukin-1 receptor-associated kinase 1 (Homo sapiens) (Q96SW2 whole entry, looked up): as the sequence (Q96SW2 whole entry) above

By IC50 is commonly meant the concentration that gives 50% inhibition. As usually defined, the inhibition is the share of the control response that was lost under treatment. As to `CC(C)c1ccn2ncnc(N[C@H]3CC[C@@H](N4CCN(C(=O)CCC(=O)N5CCC(CCN6CCN(c7ccc8c(c7)C(=O)N(C7CCC(=O)NC7=O)C8=O)CC6)CC5)CC4)CC3)c12` (some centres not stated), the 50% inhibitory concentration (IC50) turned out to be 2300 nM in [1]; 1400 nM in test [2]; 16 nM in test [3]; 460 nM at Protein cereblon; 36 nM at CDK8/Cyclin C. The inhibition in test [4] amounted to 57%; in test [5], 82%; in test [6], 69%; in [7] it was 45%. In addition, the Kd in test [8] was 3600 nM. Besides, the Selectivity ratio is 105 with THP-1 [9] and 23 with THP-1 [10]. The fold change (FC) in test [11] was -1.5. Further, the outcome in test [12], in [13], in test [16], in test [17] and in [18] was inactive. Also, the outcome in test [14], in [15], in test [19] and in test [20] was Active.
